From patent US4351337A, “Biodegradable, implantable drug delivery device, and process for preparing and using the same” (Arthur D. Little, Inc., priority 1980, dated 1982)
Entries after “also recorded” stand apart in the source; their conditions may differ.

Key:
[1] = Naltrexone saturation in Earle's solution; assay type: physicochemical; conditions: Earle's Balanced Salt Solution, 37° C.; read-out: saturation concentration
Procedure: The resulting implants were evaluated by both in vitro and in vivo techniques. In making the in vitro evaluations the films were measured for weight, thickness, and surface area, and were then rinsed briefly with Earle's Balanced Salt Solution (IX--without phenol red, Grand Island Biological Company). Individual films were placed in stoppered test tubes containing 10 ml of the Earle's solution. The tubes were placed in a shaker water bath at 37° C. and were gently agitated. Drug concentration of the solution was periodically assayed by scintillation counting techniques to permit an evaluation of the in vitro drug-release behavior of the copolymers. (The solutions were replaced sufficiently frequently that the naltrexone concentration remained far below saturation, i.e., below ~460 mg/100 ml).

[2] = Tritium excretion in urine of rats given labelled prednisolone; assay type: in vivo, rat (female CD); conditions: for Tritium in urine of rats: group 3, control, s.c. injection 1.0 mg/rat
Procedure: These implants contained from 0.65 to 2.0 mg of radioactively-labelled prednisolone, depending on the size of the implant rectangle. The implants were sterilized by immersion in alcohol and then rinsed with sterile Earle's Balanced Salt Solution. The devices were implanted subcutaneously into the backs of two groups each of eight female CD rats (Charles River Breeding Laboratories, Inc.). To accomplish the implantations, the dorsal area was shaved, cleaned with alcohol and then a one-half inch incision was made in the skin. The skin was then separated from the muscle tissue and the implant inserted at this site. The incision was then sutured.
Each animal of a third group of four female CD rats from the same source was subcutaneously injected with 0.5 cc of an 0.5% hydroxy propylcellulose solution containing an amount of the same radioactiviely labelled prednisolone approximately equivalent to that contained in the implant devices (i.e., 1 mg prednisolone/rat).
All of the animals were housed in metabolic cages. The radioactivities in the urines collected were measured by the standard procedure of scintillation counting, and from these measurements values of disintegrations per minute (DPM) were calculated. Radioactivities were thus measured every 24 hours for the first four days and then for an additional 72 hour level to complete a week of testing.
The average DPM values obtained for the two groups of implanted rats (average dosage of 1.5 mg/rat) and the one group of control rats (average dosage of 1.0 mg/rat) are given in Table 1. During the first day a number of rats escaped from their cages so that the average figures given are for fewer than the total number of animals in each group.

Question: For O=C1CC[C@@]2(O)[C@H]3Cc4ccc(O)c5c4[C@@]2(CCN3CC2CC2)[C@H]1O5 [naltrexone], which solubility [1] is on record?
Answer: ~4600 µg/mL

Question: Which “Tritium in urine of rats” value ([2]; 0-24 h) does the source give for C[C@]12C=CC(=O)C=C1CC[C@@H]1[C@@H]2[C@@H](O)C[C@@]2(C)[C@H]1CC[C@]2(O)C(=O)CO [prednisolone] here?
Answer: 33,038 DPM

Question: What about the “Tritium in urine of rats” value ([2]; 24-48 h) of the same compound?
Answer: 4,424 DPM

Question: And the “Tritium in urine of rats” value ([2]; 48-72 h)?
Answer: 3,335 DPM

Question: And the “Tritium in urine of rats” value ([2]; 72-96 h)?
Answer: 86 DPM

Question: And the “Tritium in urine of rats” value ([2]; 96-168 h, minus values indicate noise)?
Answer: -248 DPM

Question: What about the “excretion / drug release in words” value ([2]; implants to one week, control first 24 h and end of fourth day) of the same compound?
Answer: very high excretion rates in the first 24 hours; also recorded: practically no excretion of radioactive material
